From US12435059B2, “AMP-activated protein kinase inhibitors and methods of making and using the same” (The Regents of the University of Colorado, priority 2019, dated 2025)
Like-named read-outs stand apart in the source and are kept apart here.

Tests used:
Experiment in all cases: biochemical
Assay type in all cases: binding
468 kinases [1] = biological target: 468 kinases (Homo sapiens, UniProt O00238); settings: BMPR1B; read-out: % Inhibition @ 100 nM
468 kinases [2] = biological target: 468 kinases (Homo sapiens, UniProt O43683); settings: BUB1; read-out: % Inhibition @ 100 nM
468 kinases [3] = biological target: 468 kinases (Homo sapiens, UniProt O60674); settings: JAK2( JH1domain-catalytic); read-out: % Inhibition @ 100 nM
468 kinases [4] = biological target: 468 kinases (Homo sapiens, UniProt O75676); settings: read-out: % Inhibition @ 100 nM
468 kinases [5] = biological target: 468 kinases (Homo sapiens, UniProt O94804); settings: LOK; read-out: % Inhibition @ 100 nM
468 kinases [6] = biological target: 468 kinases (Homo sapiens, UniProt P00519, H396P); settings: read-out: % Inhibition @ 100 nM
468 kinases [7] = biological target: 468 kinases (Homo sapiens, UniProt P06239); settings: LCK; read-out: % Inhibition @ 100 nM
468 kinases [8] = biological target: 468 kinases (Homo sapiens, UniProt P07949, M918T); settings: RET(M918T); read-out: % Inhibition @ 100 nM
468 kinases [9] = biological target: 468 kinases (Homo sapiens, UniProt P09769); settings: FGR; read-out: % Inhibition @ 100 nM
468 kinases [10] = biological target: 468 kinases (Homo sapiens, UniProt P17612); settings: PKAC-alpha; read-out: % Inhibition @ 100 nM
468 kinases [11] = biological target: 468 kinases (Homo sapiens, UniProt P22694); settings: PKAC-beta; read-out: % Inhibition @ 100 nM
468 kinases [12] = biological target: 468 kinases (Homo sapiens, UniProt P24723); settings: PRKCH; read-out: % Inhibition @ 100 nM
468 kinases [13] = biological target: 468 kinases (Homo sapiens, UniProt P27361); settings: ERK1; read-out: % Inhibition @ 100 nM
468 kinases [14] = biological target: 468 kinases (Homo sapiens, UniProt P29322); settings: EPHA8; read-out: % Inhibition @ 100 nM
468 kinases [15] = biological target: 468 kinases (Homo sapiens, UniProt P36897); settings: TGFBR1; read-out: % Inhibition @ 100 nM
468 kinases [16] = biological target: 468 kinases (Homo sapiens, UniProt P42336, M1043I); settings: PIK3CA(M10431); read-out: % Inhibition @ 100 nM
468 kinases [17] = biological target: 468 kinases (Homo sapiens, UniProt P51817); settings: PRKX; read-out: % Inhibition @ 100 nM
468 kinases [18] = biological target: 468 kinases (Homo sapiens, UniProt P51957); settings: NEK4; read-out: % Inhibition @ 100 nM
468 kinases [19] = biological target: 468 kinases (Homo sapiens, UniProt P53350); settings: PLK1; read-out: % Inhibition @ 100 nM
468 kinases [20] = biological target: 468 kinases (Homo sapiens, UniProt Q12866); settings: MERTK; read-out: % Inhibition @ 100 nM
468 kinases [21] = biological target: 468 kinases (Homo sapiens, UniProt Q13546); settings: RIPK1; read-out: % Inhibition @ 100 nM
468 kinases [22] = biological target: 468 kinases (Homo sapiens, UniProt Q13554); settings: CAMK2B; read-out: % Inhibition @ 100 nM
468 kinases [23] = biological target: 468 kinases (Homo sapiens, UniProt Q13557); settings: CAMK2D; read-out: % Inhibition @ 100 nM
468 kinases [24] = biological target: 468 kinases (Homo sapiens, UniProt Q13976); settings: PRKG1; read-out: % Inhibition @ 100 nM
468 kinases [25] = biological target: 468 kinases (Homo sapiens, UniProt Q15831); settings: LKB1; read-out: % Inhibition @ 100 nM
468 kinases [26] = biological target: 468 kinases (Homo sapiens, UniProt Q8TDC3); settings: BRSK1; read-out: % Inhibition @ 100 nM
468 kinases [27] = biological target: 468 kinases (Homo sapiens, UniProt Q92630); settings: DYRK2; read-out: % Inhibition @ 100 nM
468 kinases [28] = biological target: 468 kinases (Homo sapiens, UniProt Q9BVS4); settings: RIOK2; read-out: % Inhibition @ 100 nM
468 kinases [29] = biological target: 468 kinases (Homo sapiens, UniProt Q9BX84); settings: TRPM6; read-out: % Inhibition @ 100 nM
468 kinases [30] = biological target: 468 kinases (Homo sapiens, UniProt Q9BXA7); settings: TSSK1B; read-out: % Inhibition @ 100 nM
468 kinases [31] = biological target: 468 kinases (Homo sapiens, UniProt Q9P0L2); settings: MARK1; read-out: % Inhibition @ 100 nM
468 kinases [32] = biological target: 468 kinases (Homo sapiens, UniProt Q9UM73, L1196M); settings: ALK(L1196M); read-out: % Inhibition @ 100 nM

Structure (SMILES)	inhibition at 0.1 µM (468 kinases [1]) [%]	inhibition at 0.1 µM (468 kinases [2]) [%]	inhibition at 0.1 µM (468 kinases [3]) [%]	inhibition at 0.1 µM (468 kinases [4]; RPS6KA4(Kin.Dom.1-N-terminal)) [%]	inhibition at 0.1 µM (468 kinases [4]; RPS6KA4(Kin.Dom.2-C-terminal)) [%]	inhibition at 0.1 µM (468 kinases [5]) [%]	inhibition at 0.1 µM (468 kinases [6]; ABL1 (H396P)-nonphosphorylated) [%]	inhibition at 0.1 µM (468 kinases [7]) [%]	inhibition at 0.1 µM (468 kinases [8]) [%]	inhibition at 0.1 µM (468 kinases [9]) [%]	inhibition at 0.1 µM (468 kinases [10]) [%]	inhibition at 0.1 µM (468 kinases [11]) [%]	inhibition at 0.1 µM (468 kinases [12]) [%]	inhibition at 0.1 µM (468 kinases [13]) [%]	inhibition at 0.1 µM (468 kinases [14]) [%]	inhibition at 0.1 µM (468 kinases [15]) [%]	inhibition at 0.1 µM (468 kinases [16]) [%]	inhibition at 0.1 µM (468 kinases [17]) [%]	inhibition at 0.1 µM (468 kinases [18]) [%]	inhibition at 0.1 µM (468 kinases [19]) [%]	also measured
CCN(CC)CCNC(=O)c1c(C)[nH]c(/C=C2\C(=O)Nc3ccc(CCC(N)=O)cc32)c1C [Compound No. 16, (Z)-5-((5-(3-Amino-3-oxopropyl)-2-oxoindolin-3-ylidene)methyl)-N-(2-(diethylamino)ethyl)-2,4-dimethyl-1H-pyrrole-3-carboxamide]	28	21	76	34	35	0	66	16	68	32	0	13	0	13	0	1	12	9	9	28	inhibition at 0.1 µM (468 kinases [20]): 68%; inhibition at 0.1 µM (468 kinases [21]): 19%; inhibition at 0.1 µM (468 kinases [22]): 10%; inhibition at 0.1 µM (468 kinases [23]): 4%; inhibition at 0.1 µM (468 kinases [24]): 14%; inhibition at 0.1 µM (468 kinases [25]): 16%; inhibition at 0.1 µM (468 kinases [26]): 27%; inhibition at 0.1 µM (468 kinases [27]): 34%; inhibition at 0.1 µM (468 kinases [28]): 38%; inhibition at 0.1 µM (468 kinases [29]): 29%; inhibition at 0.1 µM (468 kinases [30]): 4%; inhibition at 0.1 µM (468 kinases [31]): 13%; inhibition at 0.1 µM (468 kinases [32]): 31%
CCN(CC)CCNC(=O)c1c(C)[nH]c(/C=C2\C(=O)Nc3ccc(CCO)cc32)c1C [Compound No. 10, (Z)—N-(2-(Diethylamino)ethyl)-5-((5-(2-hydroxyethyl)-2-oxoindolin-3-ylidene)methyl)-2,4-dimethyl-1H-pyrrole-3-carboxamide]	0	0	72	8	0	3	57	37	65	16	0	0	1	0	0	11	0	0	0	0	inhibition at 0.1 µM (468 kinases [6]; ABL1 (H396P)-phosphorylated): 6%; inhibition at 0.1 µM (468 kinases [20]): 71%; inhibition at 0.1 µM (468 kinases [21]): 1%; inhibition at 0.1 µM (468 kinases [22]): 0%; inhibition at 0.1 µM (468 kinases [23]): 20%; inhibition at 0.1 µM (468 kinases [24]): 0%; inhibition at 0.1 µM (468 kinases [25]): 31%; inhibition at 0.1 µM (468 kinases [26]): 29%; inhibition at 0.1 µM (468 kinases [27]): 18%; inhibition at 0.1 µM (468 kinases [28]): 0%; inhibition at 0.1 µM (468 kinases [29]): 0%; inhibition at 0.1 µM (468 kinases [30]): 0%; inhibition at 0.1 µM (468 kinases [31]): 39%; inhibition at 0.1 µM (468 kinases [32]): 52%
